From patent US12466816B2, “Fused cyclic compound capable of degrading protein and use thereof” (Medshine Discovery Inc., priority 2019, dated 2025)

Legend:
Assay type in all cases: cell-based
U87-MG cells = assay: Drug synergism experiment with DNA damaging agents (CCK-8); settings: 10 μM WX106, low concentrations of agent, 72 hours
Procedure: U87-MG cells were treated with WX106 and DNA damaging agents, temozolomide, cisplatin, and gemcitabine for 72 hours, respectively, and the proliferation level of cells was detected by CCK-8. Among them, the WX106 concentration was 10 μM, and the DNA damaging agent concentrations were 0.1 μM, 1 μM and 10 μM, respectively.

CRBN = CRBN (Homo sapiens, UniProt Q96SW2); assay: Protein degradation competition experiment (CC885-induced GSPT1 degradation); set-up: endogenous in cells; host or cells: MOLT-4; settings: MOLT-4 cells, co-treated with 10 nM CC885, 4 hours, Western blot
Procedure: MOLT-4 cells were co-treated with 0.1, 1 and 10 μM of WX106 and 10 nM of CC885 for 4 hours, and the protein level of GSPT1 was then detected by Western blot, with Poma (Pomalidomide, Selleck, S1567) acting as the positive control in the experiment. Cells were collected and denatured in protein loading buffer (50 mM Tris-HCL 2% SDS, 0.025% BPB, 1% β-mercaptoethanol, 10% glycerol) at 98° C. for 10 min. Proteins were separated by SDS-PAGE and transferred to a PVDF membrane (Millipore, IPVH00010), blocked with 5% skim milk (dissolved in TBST buffer), incubated with a primary antibody overnight at 4° C., and then incubated with a secondary antibody (Anti-rabbit IgG, HRP-linked Antibody, Cell Signaling, 7074S) at room temperature for 1 hour, and the bands on the membrane were detected by chemiluminescence (ECL chemiluminescence kit, Beyotime Biotechnology, P0018AM).

Hep3B cells = assay: Cell growth competition experiment with Poma (CCK-8); settings: 1, 10 and 50 μM Poma with 10 μM WX106, 72 hours
Procedure: (§1) Principle: It is known that Poma is a compound that binds to CRBN, and Poma has no obvious inhibitory effect on adherent cells. If a compound depends on CRBN to inhibit cell growth, Poma's competitive binding to CRBN will definitely affect the cytotoxic effect of this compound. Cells were treated with 1, 10 and 50 μM of Poma and 10 μM of WX106 for 72 hours; cell viability was detected using the CCK-8 kit and cell survival rate was calculated [based on the formula], cell survival rate=[(As −Ab)/(Ac−Ab)]×100% (where As represents the absorbance of the experimental wells, Ac represents the absorbance of the control wells, and Ab represents the absorbance of the blank wells); finally, the effect of the competitive binding of Poma on the cytotoxicity of WX106 was calculated to determine whether the cytotoxicity of WX106 is dependent on CRBN. This step was applied to both SUN182 and Hep3B cells.

SNU182 = assay: as above; settings: 1, 10 and 50 μM Poma with 10 μM WX106, 72 hours
Procedure: as §1
CC885 was the positive control in this experiment and is known to kill tumor cells in a CRBN-dependent manner.

Wee1 = Wee1 (Homo sapiens, UniProt P30291); assay: Detection of compounds that degrade Wee1 protein (Western blot); set-up: endogenous in cells; host or cells: MOLT-4, U87-MG; settings: MOLT-4 cells 10 μM 4 hours; U87-MG cells 1 μM 24 hours
Procedure: MOLT-4 cells were treated with 10 μM of the test compound for 4 hours and U87-MG cells were treated with 1 μM of the test compound for 24 hours, respectively. With GAPDH (Santa Cruz, sc-32233) as the internal reference protein, the protein level of Wee1 (Cell Signaling, 13084S) was detected using Western blot. Cells were collected, lysed with protein loading buffer (1M Tris-HCl, 10% SDS, 0.025% BPB), and denatured at 98° C. for 10 min before Western blot analysis. The main steps include: 1) Electrophoresis: The protein was separated by SDS-PAGE electrophoresis. During the electrophoresis, the voltage was adjusted to 80 v for about 30 min, and then the voltage was adjusted to 120 v until the bromophenol blue ran out of the gel. 2) Transfer to a membrane: the gel was stuck to a methanol-activated PVDF membrane using the method of wet transfer, and after the top and bottom layers were wrapped with filter paper, the membrane was placed into the gel holder cassette and fixed to the transfer tank, and transfer was performed at a constant current of 250 mA for 90 min; 3) Blocking: the PVDF membrane with trace protein was placed into the antibody incubation box, 5% skim milk was added to completely cover the PVDF membrane, and incubation was performed for 1 hour on a shaker at room temperature; 4) Incubation of the primary antibody: the primary antibody was prepared with 5% BSA (1:1000) and incubated overnight on a shaker at 4° C.; 5) Incubation of the secondary antibody: the membrane was washed thrice with TBST, the secondary antibody (prepared with 5% skim milk) was added (according to the species source of the primary antibody, different secondary antibodies with a dilution range of 1:3000-1:10000 were used), and incubation was performed on a shaker at room temperature for one hour; 5) Exposure: the membrane was washed thrice with TBST and the bands on the membrane were detected by chemiluminescence.

Row | Compound | pro-degradation effect on Wee1 (Wee1) | also measured
1 | N.N.[Cl][Pt][Cl] [Cisplatin, cisplatin] | – | proliferation of U87-MG cells, DNA damaging agent at low concentrations in combination with WX106 (U87-MG cells): significantly inhibit the proliferation of U87-MG cells
2 | Nc1cccc2c1C(=O)N(C1CCC(=O)NC1=O)C2=O (stereo not shown) [Poma, Pomalidomide] | – | effect on degradation of GSPT1 induced by CC885 (CRBN): could inhibit the pro-degradation of GSPT1 by CC885; effect of Poma on the cytotoxicity caused by WX106 (Hep3B cells): capable of competitively inhibiting the cytotoxicity caused by WX106; effect of Poma on the cytotoxicity caused by WX106 (SNU182): capable of competitively inhibiting the cytotoxicity caused by WX106
3 | Nc1ccn([C@@H]2O[C@H](CO)[C@@H](O)C2(F)F)c(=O)n1 [gemcitabine] | – | proliferation of U87-MG cells, DNA damaging agent at low concentrations in combination with WX106 (U87-MG cells): significantly inhibit the proliferation of U87-MG cells

Further lines, with some results ahead:

Row | pro-degradation effect on Wee1 (Wee1) | Compound | also measured
4 | pro-degradation effect on Wee1 | O=C1CCC(c2coc3ccc(NC(=O)c4ccnc(C(F)(F)F)c4)cc23)C(=O)N1 (stereo not shown) [WX002] | –
5 | pro-degradation effect on Wee1 | Cc1ccc(C(=O)Nc2ccc3occ(C4CCC(=O)NC4=O)c3c2)cc1 (stereo not shown) [WX003] | –
6 | pro-degradation effect on Wee1 | O=C1CCC(c2coc3ccc(NC(=O)c4cccc(Cl)c4)cc23)C(=O)N1 (stereo not shown) [WX004] | –
7 | pro-degradation effect on Wee1 | O=C1CCC(c2coc3ccc(NC(=O)c4ccccc4)cc23)C(=O)N1 (stereo not shown) [WX005] | –
8 | pro-degradation effect on Wee1 | CCCC(=O)Nc1ccc2occ(C3CCC(=O)NC3=O)c2c1 (stereo not shown) [WX006] | –
